Measurements: article PMC2987774, “Creation of a novel peptide with enhanced nuclear localization in prostate and pancreatic cancer cell lines” (BMC Biotechnology, 2010)
Where “and” joins values, the source holds several entries; their conditions need not be identical. Identical values can stand only once. Like-named read-outs stand apart in the source and are kept apart here. Marks after values point to notes of the source that are not given here.

Experiments:
DU-145 and LNCaP cells [1] = test: Nuclear colocalization by imaging flow cytometry (DRAQ5), statement pooled over two lines; assay type: cell-based; settings: 250 nM, 4 hours; fixed cells, IDEAS software
Protocol: Figure 4 Imaging studies. Figure 4A: DU-145 and LNCaP cells were incubated with 250 nM Glu-Ala-FITC or Glu-Oct6-FITC for 4 hours, counterstained with […] DRAQ 5, then fixed in paraformaldehyde and analyzed by imaging flow cytometry on an Amnis Imaging Cytometer. IDEAS software (Amnis) was used to generate and colorize the images. Across each row of images, one is viewing the same cell under different fluorescence excitations. […] Figure 4B: Live cell imaging of Glu-Oct6-FITC by DU-145 cells. 500 nM Glu-Oct6-FITC was incubated with DU-145 cells overnight (necessary for imaging purposes). Cells were washed with phenol red-free buffer, counter-stained with DRAQ5 at […], and then examined under a Zeiss Axiovert 200 inverted phase contrast microscope with epifluorescence. The merged image confirms the presence of Glu-Oct6-FITC in nuclei. Merged images with and without Nomarski interference are shown. Figure 4C and D: DU-145 cells incubated with Glu-FITC and Oct6-FITC, as described for Figure 3B. Note the absence of FITC fluorescence in nuclei.
(§1) Concentrations ranging from 0 to 1000 nM were assayed. Fluorescence was normalized using calibration beads (Becton-Dickinson; BD). […] Four to five thousand events were collected for analysis.

DU-145 and LNCaP cells [2] = test: Live cell imaging, inverted epifluorescence microscopy with DRAQ5; assay type: cell-based; settings: 500 nM, 24 hrs incubation
Protocol: A Zeiss Axiovert 200 inverted phase-contrast microscope outfitted with epifluorescence was used for live imaging studies. Subconfluent cultures of cells in 12-well plates were incubated with 500 nM peptides as indicated. DRAQ5 (Axxora; […] final concentration) was added for the last hour of incubation, then the cells were washed twice with warm phenol red-free buffer. Cells were examined in phenol red-free buffer plus 10% serum. Images were acquired and analyzed using Zeiss Axiovision software.

DU-145 cells [3] = settings: for % Inhibition of uptake: 300 nM, 4 hr; for uptake of Glu-Oct6-FITC on coincubation with carboxydansyl peptide: 300 nM dansyl peptide + 300 nM Glu-Oct6-FITC, 1 hr, BD LSR II (Figure 2D)
Protocol: Peptides were added to subconfluent cultures of cells at times, temperatures, and concentrations indicated in experiments. Concentrations ranging from 0 to 1000 nM were assayed. Fluorescence was normalized using calibration beads (Becton-Dickinson; BD). Cells were analyzed in the presence of 5 mM 7-AAD (eBioscience, San Digeo CA) to gate on live events. Fluorescence was quantified, after cells were harvested, using a BD FACScan flow cytometer. At least 10,000 events were acquired using CellQuest Pro software and an Apple Macintosh G4 dual coprocessor computer running OS X 10.3.9. Fluorescence detectors on the instrument were standardized prior to each acquisition run, so that fluorescence intensities from different days could be compared. Because the FACScan employs logarithmic amplifiers on the fluorescence detectors, the more accurate parameter with which to compare fluorescence intensities for different samples is the geometric mean fluorescence intensity (geometric MFI). For the studies examining uptake of carboxyfluorescein peptides plus carboxydansyl peptides, fluorescence was quantified on a BD LSR II flow cytometer.

DU-145 cells [4] = test: Nuclear colocalization by imaging flow cytometry (DRAQ5, Amnis ImageStream); assay type: cell-based; settings: 1000 nM, 18 hr; 4 to 5 thousand events
Protocol: as §1

PANC-1 cells [5] = test: as above; assay type: cell-based; settings: 1000 nM, 18 hr; 4 to 5 thousand events
Protocol: as §1

DU-145 cells [6] = test: Apoptosis, FITC-annexin V plus PI flow cytometry; assay type: cell-based; settings: 48 hr, mean of 3 experiments
Protocol: (§2) DU-145 and PANC-1 cells were incubated with PNAs Glu-Oct6-13410a or 13410a (no CPP attached) at 0, 300, 600, or 1000 nM for 48 hr. Cells were harvested, then stained with FITC-annexin V (Abcam; Cambridge, MA) and counterstained with propidium iodide (Sigma, St.Louis, MO). Cells were analyzed on a BD FACScan for fluorescence in the FL1 and FL3 channels; CellQuest Pro software was used to quantify fluorescence and determine the extent of apoptosis.

PANC-1 cells [7] = test: Apoptosis, FITC-annexin V plus PI flow cytometry; assay type: cell-based; settings: 48 hr, mean of 3 experiments
Protocol: as §2

Substance: EEEAA-FITC [Glu-Ala-FITC]
- nuclei positive for DRAQ5 and FITC colocalization (DU-145 and LNCaP cells [1]): ~ 10%
- accumulation in the nuclei (DU-145 and LNCaP cells [2]): not
- % Inhibition of uptake (DU-145 cells [3]; 0% NaN3 (reference)): 0%
- % Inhibition of uptake (DU-145 cells [3]; 0.1% NaN3): 0%

Substance: EEEAAGRKRKKRT-FITC [Glu-Oct6-FITC]
- distribution in the cytoplasm (DU-145 and LNCaP cells [1]): approximately 50%
- distribution in the nucleus (DU-145 and LNCaP cells [1]): approximately 50%
- accumulation in the nuclei (DU-145 and LNCaP cells [2]): accumulated in the nuclei
- % Inhibition of uptake (DU-145 cells [3]; 0% NaN3 (reference)): 0%
- % Inhibition of uptake (DU-145 cells [3]; 0.1% NaN3): 0%
- % Inhibition of uptake (DU-145 cells [3]; 1.0% NaN3): 24.8%

Substance: EEEAAGRKRKKRT-TATGATCTCCTCCGT-K-FITC [Glu-Oct6-PNA-FITC, Glu-Oct6 at the N terminus, inert PNA …-lysyl-FITC at the C terminus]
- mean % cyto. FITC (DU-145 cells [4]): 22.48%
- mean % nuclear FITC (DU-145 cells [4]): 68.04%
- mean cyto. FITC intensity (DU-145 cells [4]): 76,943
- mean nuclear FITC intensity (DU-145 cells [4]): 274,597
- mean % cyto. FITC (PANC-1 cells [5]): 21.8%
- mean cyto. FITC intensity (PANC-1 cells [5]): 68,465
- mean nuclear FITC intensity (PANC-1 cells [5]): 322,794

Substance: EEEAAGRKRKKRT-TCCCGTAAATCCCTA [Glu-Oct6-13410a]
- % apop. (DU-145 cells [6]; 300 nM PNA): 8.7%
- % apop. (DU-145 cells [6]; 600 nM PNA): 48% and 48.7* %
- % apop. (DU-145 cells [6]; 1000 nM PNA): 82.5* %
- % apop. (PANC-1 cells [7]; 300 nM PNA): 17.4%
- % apop. (PANC-1 cells [7]; 600 nM PNA): 69% and 69.6* %
- % apop. (PANC-1 cells [7]; 1000 nM PNA): 84.6* %

Substance: EEEAAKKK-FITC [Glu-Lys-FITC]
- % Inhibition of uptake (DU-145 cells [3]; 0% NaN3 (reference)): 0%
- % Inhibition of uptake (DU-145 cells [3]; 0.1% NaN3): 0%

Substance: FFFAAGRKRKKRT-dansyl [Phe-Oct6-Dansyl]
- uptake of Glu-Oct6-FITC on coincubation with carboxydansyl peptide (DU-145 cells [3]): nearly unaltered uptake

Substance: GRKRKKRT-FITC [Oct6-FITC, reference compound]
- accumulation in the nuclei (DU-145 and LNCaP cells [2]): not
- % Inhibition of uptake (DU-145 cells [3]; 0% NaN3 (reference)): 0%
- % Inhibition of uptake (DU-145 cells [3]; 0.1% NaN3): 29.8%
- % Inhibition of uptake (DU-145 cells [3]; 1.0% NaN3): 56.7%

Substance: NNNAAGRKRKKRT-dansyl [Asn-Oct6-Dansyl]
- uptake of Glu-Oct6-FITC on coincubation with carboxydansyl peptide (DU-145 cells [3]): nearly unaltered uptake
